According to US10124085B2, “Antimicrobial and antiviral hygienic products” (priority 2014, dated 2018):

Tests used:
[1] = test system: enteric bacteria; details: cited from earlier work
[2] = test system: Escherichia coli; experiment: Modified disc diffusion method; assay type: cell-based; design: key: +sign indicates that the boron compounds had antimicrobial activity.; −sign indicates that there is no antimicrobial activity; details: disc immersed in pulverized boron compound; Ofloxacin 10 μg/disc; 36±1° C., 24 hours
[3] = test system: Staphylococcus aureus; experiment: Modified disc diffusion method; assay type: cell-based; design: key: +sign indicates that the boron compounds had antimicrobial activity.; −sign indicates that there is no antimicrobial activity; details: disc immersed in pulverized boron compound; Ofloxacin 10 μg/disc; 36±1° C., 24 hours
[4] = test system: Pseudomonas aeruginosa; experiment: Modified disc diffusion method; assay type: cell-based; design: key: +sign indicates that the boron compounds had antimicrobial activity.; −sign indicates that there is no antimicrobial activity; details: disc immersed in pulverized boron compound; Ofloxacin 10 μg/disc; 36±1° C., 24 hours
[5] = test system: Candida albicans; experiment: Modified disc diffusion method; assay type: cell-based; design: key: +sign indicates that the boron compounds had antimicrobial activity.; −sign indicates that there is no antimicrobial activity; details: disc immersed in pulverized boron compound; Nystatin 30 μg/disc; 36±1° C., 48 hours
[6] = test system: Candida glabrata; experiment: Modified disc diffusion method; assay type: cell-based; design: key: +sign indicates that the boron compounds had antimicrobial activity.; −sign indicates that there is no antimicrobial activity; details: disc immersed in pulverized boron compound; Nystatin 30 μg/disc; 36±1° C., 48 hours
[7] = test system: Aspergillus niger; experiment: Modified disc diffusion method; assay type: cell-based; design: key: +sign indicates that the boron compounds had antimicrobial activity.; −sign indicates that there is no antimicrobial activity; details: disc immersed in pulverized boron compound; Nystatin 30 μg/disc; 25±1° C., 72 hours
[8] = test system: Fusarium oxysporum; experiment: Modified disc diffusion method; assay type: cell-based; design: key: +sign indicates that the boron compounds had antimicrobial activity.; −sign indicates that there is no antimicrobial activity; details: disc immersed in pulverized boron compound; Nystatin 30 μg/disc; 25±1° C., 72 hours
[9] = test system: Botrytis cinerea; experiment: Modified disc diffusion method; assay type: cell-based; design: key: +sign indicates that the boron compounds had antimicrobial activity.; −sign indicates that there is no antimicrobial activity; details: disc immersed in pulverized boron compound; Nystatin 30 μg/disc; 25±1° C., 72 hours
[10] = test system: Penicillium vinaceum; experiment: Modified disc diffusion method; assay type: cell-based; design: key: +sign indicates that the boron compounds had antimicrobial activity.; −sign indicates that there is no antimicrobial activity; details: disc immersed in pulverized boron compound; Nystatin 30 μg/disc; 25±1° C., 72 hours
[11] = test system: Penicillium expansum; experiment: Modified disc diffusion method; assay type: cell-based; design: key: +sign indicates that the boron compounds had antimicrobial activity.; −sign indicates that there is no antimicrobial activity; details: disc immersed in pulverized boron compound; Nystatin 30 μg/disc; 25±1° C., 72 hours
[12] = test system: all of the tested microorganisms; assay type: cell-based
[13] = test system: streptococci; details: cited from earlier work
[14] = test system: micrococci; details: cited from earlier work
[15] = test system: Propionibacterium acnes; details: cited from earlier work
[16] = test system: Human adenovirus type 5 Adenoid 75 strain; experiment: Antiviral activity test in HEp-2 cell culture (TCID50, Spearman-Karber); assay type: cell-based; details: for Reduction ratio in virus titration / Virus titration with Chlorhexidine gluconate: 0.1%, 20° C.; for Virus titration with Chlorhexidine gluconate: reference virus 5.5
[17] = test system: Poliovirus type 1 Chat strain; assay type: cell-based
[18] = test system: Human Herpes simplex virus type 1 (HSV-1) MacIntyre strain; experiment: Antiviral activity test in Vero cell culture (TCID50, Spearman-Karber); assay type: cell-based; details: for Reduction ratio in virus titration / Virus titration with Chlorhexidine gluconate: 0.1%, 20° C.; for Virus titration with Chlorhexidine gluconate: reference virus 7.3
[19] = test system: HEp-2 cells (ATCC CCL-23)
[20] = test system: Herpesvirus hominis; details: 0.02% chlorhexidine gluconate; 90-minute exposure at room temperature; cited from earlier work
[21] = test system: poliovirus; details: 0.02% chlorhexidine gluconate; 90-minute exposure at room temperature; cited from earlier work
[22] = test system: adenovirus; details: 0.02% chlorhexidine gluconate; 90-minute exposure at room temperature; cited from earlier work
[23] = test system: Penicillium expansium; details: cited from earlier work
[24] = test system: Botrytis cinerea; details: 1% concentration; cited from earlier work
[25] = test system: various bacterial strains; details: 10-minute exposure; 0.02% chlorhexidine solution; cited from earlier work
[26] = room temperature (20° C.), clean and polluted media, 1 and 60 minute application periods
[27] = used directly without being diluted, room temperature (20° C.), 1 and 60 minute application periods

OB(O)O [boric acid]
antibacterial activity [1]: has antibacterial activity

CC1COc2c(N3CCN(C)CC3)c(F)cc3c(=O)c(C(=O)O)cn1c23 (stereo not drawn) [Ofloxacin]
Antimicrobial activity (inhibition zone) [2]: +
Antimicrobial activity (inhibition zone) [3]: +
Antimicrobial activity (inhibition zone) [4]: +

C[C@@H]1[C@H](O)[C@@H](C)/C=C/C=C/CC/C=C/C=C/C=C/C=C/C(O[C@H]2O[C@H](C)[C@@H](O)[C@H](N)[C@@H]2O)CC2O[C@](O)(CC(O)C(O)CCC(O)CC(O)CC(O)CC(=O)O[C@H]1C)CC(O)C2C(=O)O (stereo partly drawn) [Nystatin]
Antimicrobial activity (inhibition zone) [5]: +
Antimicrobial activity (inhibition zone) [6]: +
Antimicrobial activity (inhibition zone) [7]: +
Antimicrobial activity (inhibition zone) [8]: +
Antimicrobial activity (inhibition zone) [9]: +
Antimicrobial activity (inhibition zone) [10]: +
Antimicrobial activity (inhibition zone) [11]: +

Sodium Borate [SB]
Antimicrobial activity (inhibition zone) [2]: +
Antimicrobial activity (inhibition zone) [3]: +
Antimicrobial activity (inhibition zone) [4]: +
Antimicrobial activity (inhibition zone) [5]: +
Antimicrobial activity (inhibition zone) [6]: +
Antimicrobial activity (inhibition zone) [7]: +
Antimicrobial activity (inhibition zone) [8]: +
Antimicrobial activity (inhibition zone) [9]: +
Antimicrobial activity (inhibition zone) [10]: +
Antimicrobial activity (inhibition zone) [11]: +
concentration giving the most effective antimicrobial (antifungal, anticandidal and antibacterial) results [12]: 4 mg/cm^2

O.O.O.O.O.[Na+].[Na+].[O-]B1OB2OB([O-])OB(O1)O2 [BP, Borax pentahydrate]
Antimicrobial activity (inhibition zone) [2]: +
Antimicrobial activity (inhibition zone) [3]: +
Antimicrobial activity (inhibition zone) [4]: +
Antimicrobial activity (inhibition zone) [5]: +
Antimicrobial activity (inhibition zone) [6]: +
Antimicrobial activity (inhibition zone) [7]: +
Antimicrobial activity (inhibition zone) [8]: +
Antimicrobial activity (inhibition zone) [9]: +
Antimicrobial activity (inhibition zone) [10]: +
Antimicrobial activity (inhibition zone) [11]: +
concentration giving the most effective antimicrobial (antifungal, anticandidal and antibacterial) results [12]: 5.5 mg/cm^2

Oc1cc(Cl)ccc1Oc1ccc(Cl)cc1Cl [triclosan]
effectiveness relative to hexachlorophene [13]: less effective
effectiveness relative to hexachlorophene [14]: less effective
effectiveness relative to hexachlorophene [15]: less effective

O.O.O.O.[Na+].[O-]B1OO1 [SPT, Sodium perborate tetrahydrate]
Antimicrobial activity (inhibition zone) [2]: +
Antimicrobial activity (inhibition zone) [3]: +
Antimicrobial activity (inhibition zone) [4]: +
Antimicrobial activity (inhibition zone) [5]: +
Antimicrobial activity (inhibition zone) [6]: +
Antimicrobial activity (inhibition zone) [7]: +
Antimicrobial activity (inhibition zone) [8]: +
Antimicrobial activity (inhibition zone) [9]: +
Antimicrobial activity (inhibition zone) [10]: +
Antimicrobial activity (inhibition zone) [11]: +
concentration giving the most effective antimicrobial (antifungal, anticandidal and antibacterial) results [12]: 5.5 mg/cm^2

N=C(NCCCCCCNC(=N)NC(=N)Nc1ccc(Cl)cc1)NC(=N)Nc1ccc(Cl)cc1.O=C(O)[C@H](O)[C@@H](O)[C@H](O)[C@H](O)CO.O=C(O)[C@H](O)[C@@H](O)[C@H](O)[C@H](O)CO [Chlorhexidine gluconate]
Reduction ratio in virus titration ([16]; 1 minute, Clean medium): 4.0 Logarithmic TCID50
Virus titration with Chlorhexidine gluconate ([16]; 1 minute, Clean medium): 1.5 Logarithmic TCID50
Reduction ratio in virus titration ([16]; 1 minute, Polluted medium): 4.0 Logarithmic TCID50
Virus titration with Chlorhexidine gluconate ([16]; 1 minute, Polluted medium): 1.5 Logarithmic TCID50
Reduction ratio in virus titration ([16]; 60 minutes, Clean medium): 4.5 Logarithmic TCID50
Virus titration with Chlorhexidine gluconate ([16]; 60 minutes, Clean medium): 1.0 Logarithmic TCID50
Reduction ratio in virus titration ([16]; 60 minutes, Polluted medium): 4.0 Logarithmic TCID50
Virus titration with Chlorhexidine gluconate ([16]; 60 minutes, Polluted medium): 1.5 Logarithmic TCID50
reduction in virus titration [16, 26]: at least 4 log
active against virus [16, 27]: 99.9%
reduction in virus titration [17]: at least 4 log
Reduction ratio in virus titration ([17]; 0.1%, 20° C.): 4.2 Logarithmic TCID50
Virus titration with Chlorhexidine gluconate ([17]; 0.1%, 20° C.): 1.3 Logarithmic TCID50
Reduction ratio in virus titration ([18]; 1 minute, Clean medium): 4 Logarithmic TCID50
Virus titration with Chlorhexidine gluconate ([18]; 1 minute, Clean medium): 2.3 Logarithmic TCID50
Reduction ratio in virus titration ([18]; 1 minute, Polluted medium): 4 Logarithmic TCID50
Virus titration with Chlorhexidine gluconate ([18]; 1 minute, Polluted medium): 2.3 Logarithmic TCID50
Reduction ratio in virus titration ([18]; 60 minutes, Clean medium): 4 Logarithmic TCID50
Virus titration with Chlorhexidine gluconate ([18]; 60 minutes, Clean medium): 2.3 Logarithmic TCID50
Reduction ratio in virus titration ([18]; 60 minutes, Polluted medium): 4 Logarithmic TCID50
Virus titration with Chlorhexidine gluconate ([18]; 60 minutes, Polluted medium): 2.3 Logarithmic TCID50
reduction in virus titration [18, 26]: at least 4 log
active against virus [18, 27]: 99.9%
cytopathic effect on the cells in the cell culture [19]: showed cytopathic effect
lowest ratio which does not show cytopathic effect [19]: 0.1%
reduction of virus titration [20]: more than 99%
activity against virus [21]: ineffective
activity against virus [22]: ineffective

[K+].[K+].[O-]B1OB2OB([O-])OB(O1)O2 [potassium tetraborate]
minimum concentration preventing micelle growth [23]: 0.1%
control of mold causing disease on the grapes [24]: could control

[H]/N=C(\N/C(=N/[H])NCCCCCCNC(=N)NC(=N)Nc1ccc(Cl)cc1)Nc1ccc(Cl)cc1 [chlorhexidine]
inhibition of microorganisms [25]: 99.99%
